Results: patent publication US20050154066A1, “Antiaging composition” (KANEKA CORPORATION, priority 2004, published 2005)

Legend:
[1] = in vitro; cited from earlier work
[2] = tested on: Aging-accelerated model mice (SAMP1); assay: Aging preventing (retarding) effect in aging-accelerated model mice, aging degree score; assay type: in vivo; conditions: SAMP1 female mice, about 150 to 250 mg/kg/day; for aging degree score (increase): feed containing 0.2% test substance, versus control feed, FIG. 1 / FIG. 2
Description: In evaluating such antiaging effects, for example, aging-accelerated model mice, can be used as an in vivo evaluation model. This mouse is a model mouse discovered and bred at Kyoto University, Japan, which develops the state of aging early and markedly.
Aging-accelerated model mice (SAMP1, 3-week-old females) were allowed free access to a feed (CE-2, product of CLEA Japan, Inc.) containing 0.2% reduced coenzyme Q10 (containing about 1% of oxidized coenzyme Q10) obtained in Production Example 1, and the aging degree of each mouse was quantified with time according to the aging degree score mentioned below. The dose of reduced coenzyme Q10 as estimated from the feed consumption and animal weight corresponded to about 150 to 250 mg/kg/day. A control group was given the feed alone (CE-2, product of CLEA Japan, Inc.).
The aging-accelerated model mice used were model mice discovered and bred at Kyoto University which develop the state of aging early and markedly. These mice show the state of aging quite similar to that of humans, and are useful model animals for in vivo testing for antiaging effects. The aging degree scoring system employed was the scoring system established by the Council for SAM Research. Thus, scores of 0 to 4 were given to each animal with respect to each of the following 11 items: 1: decrease in activity (searching behavior), 2: decrease in passivity (pinching escaping behavior), 3: loss of hair luster, 4: roughening of hair, 5: loss of hair, 6: skin ulcer, 7: periophthalmic lesions (blepharitis and periophthalmic erosion), 8: corneal clouding, 9: corneal ulcer, 10: cataract, 11: increased anterior or backward spinal curvature. The conditions found in a group of young mice about 3 months of age were taken as standards and given the score 0 (zero). Thus, a higher score indicates more advanced aging.
The test of Example 1 was performed in the same manner except that oxidized coenzyme Q10 was used in lieu of reduced coenzyme Q10. […]

rats = conditions: administered every day for 52 weeks at 1,200 mg/kg/day (Williams et al. 1999); cited from earlier work

Compound | antioxidant activity [1] | aging degree score (increase) [2] | aging preventing effect compared with reduced coenzyme Q10 ([2]; feed, FIG. 2 vs FIG. 1) | toxic effect (rats)
COC1=C(OC)C(=O)C(C/C=C(\C)CC/C=C(\C)CC/C=C(\C)CC/C=C(\C)CC/C=C(\C)CC/C=C(\C)CC/C=C(\C)CC/C=C(\C)CC/C=C(\C)CCC=C(C)C)=C(C)C1=O [oxidized coenzyme Q10] | does not show antioxidant activity | suppressed to a certain extent | weak | 
COc1c(O)c(C)c(C/C=C(\C)CC/C=C(\C)CC/C=C(\C)CC/C=C(\C)CC/C=C(\C)CC/C=C(\C)CC/C=C(\C)CC/C=C(\C)CC/C=C(\C)CCC=C(C)C)c(O)c1OC [reduced coenzyme Q10] | shows antioxidant activity | distinctly prevented from increasing |  | 
COC1=C(OC)C(=O)C(C/C=C(\C)CC/C=C(\C)CC/C=C(\C)CC/C=C(\C)CC/C=C(\C)CC/C=C(\C)CC/C=C(\C)CC/C=C(\C)CC/C=C(\C)CCC=C(C)C)=C(C)C1=O [coenzyme Q10] |  |  |  | no toxic effect
